Values of other authors in patent US20140271726A1, “COMPOSITIONS AND METHODS FOR […] SUSCEPTIBILITY TO ANTIVIRAL AGENTS” (WISCONSIN ALUMNI RESEARCH FOUNDATION, priority 2013, published 2014).

Test system: HCV genotype 3
Conditions: genotype 3 patient, short duration monotherapy

## C/C=C/C[C@@H](C)[C@@H](O)[C@H]1C(=O)N[C@@H](CC)C(=O)N(C)[C@H](C)C(=O)N(CC)[C@@H](C(C)C)C(=O)N[C@@H](C(C)C)C(=O)N(C)[C@@H](CC(C)C)C(=O)N[C@@H](C)C(=O)N[C@H](C)C(=O)N(C)[C@@H](CC(C)C)C(=O)N(C)[C@@H](CC(C)C)C(=O)N(C)[C@@H](C(C)C)C(=O)N1C [alisprovir]
  clinical outcome: cured
